Data as given in PMC4585259 (Frontiers in Pharmacology, 2015).
Where two headings read alike, the source gives them in different places. Blank lines part the entries; values can stand above or below the compound they belong to.

Target: T1, rNav1.2 sodium channels (Rattus norvegicus, UniProt P04775)
T1 construct: host or cells: HEK-293
Assay: QPatch automated patch clamp, inhibition of sodium currents evoked by 5 Hz trains at three extracellular pH values
Type: cell-based
Details: for class of pH-dependence pattern (cluster analysis): Ward's method on 18 variables of affinity, reversibility, onset
Experimental: HEK-293 cells stably expressing rNav1.2 sodium channels were obtained from NeuroSearch (Ballerup, Denmark). The cells were grown in Dulbecco's modified Eagle medium supplemented with 10% FBS. Prior to use, the cells were trypsinized and subsequently kept in suspension in the QPatch cell storage facility in CHO-S- SFM-II medium.
Composition of the extracellular solution was: (in mM): 140 NaCl, 3 KCl, 1 CaCl2 1 MgCl2, 0.1 CdCl2, 20 TEA-Cl, 5 HEPES, adjusted to pH 7.3, Osmolality: 320 mOsm. […] Drugs were synthesized in Gedeon Richter Plc. […] The full list of drugs, with their three-letter codes, concentration, as well as their main therapeutic indication and main mechanism of action are shown in Table 1. […] The choice of concentrations used in this study may seem unusually high.
Data were sampled at a frequency of 25 kHz and filtered at 5 kHz. Junction potential was calculated to be −11 mV and was corrected for. […] Cells having membrane resistance < 500 MOhm, series resistance > 9 MOhm, or capacitance > 22 pF were excluded from analysis. The experimental protocol was also identical to the one used in our previous study: sodium channels were activated by 5 Hz trains of 5 depolarizations (−90 to −10 mV) repeated in every 20 s. In this study, however, the same control–drug-application–washout sequence was repeated four times: at neutral, acidic, alkalic, and again neutral pH. The peak amplitudes of sodium currents throughout the whole experiment are shown plotted against time in Figure 1 and Supplementary Figure 1.
Initial analysis, including subtraction of leak and capacitive artifacts, as well as peak detection were done in the QPatch software. […] All experiments were normalized to the amplitude of the current evoked by the first depolarization of the last train under control conditions. […] For all four drug applications in an experiment, apparent affinity, onset and offset time constants as well as reversibility values were calculated. […] (This method is equivalent to applying the Lineweaver-Burk plot method using a single concentration.) Reversibility values were calculated from control (c), inhibited (i), and wash-out (w) amplitudes as follows: Reversibility = (w-i)/(c-i). Reversibility values should not be regarded as experimental platform-independent properties of compounds. […] However, reversibility values are a valuable source of information regarding physicochemical differences between individual drugs, or between effects of the same drug under different extracellular pH conditions. Onset and offset time constants were determined by single exponential fitting to individual experiments. For neutral pH numerical data were given as the average of the data from the first and the last drug applications. Thin black lines on Figure 1 and Supplemental Figure 1 show the average of five fitted exponentials, (not the exponential fitted to the averaged normalized amplitudes). The numerical values of apparent affinity, onset and offset time constants and reversibility are shown in Table 2, and their relative position is illustrated in Figure 2. Affinity and time constant values were logarithmically transformed for statistics, therefore we show their geometric mean. For recovery data no transformation was done, and we show arithmetic mean values. Significance values were calculated using paired, two-tailed Student's t-test based on five pairs of apparent affinity (log transform), time constant (log transform), or reversibility values obtained from five individual experiments. Because of the large number of comparisons in this study, we accepted p < 0.01 as significant. Cluster analysis was done using Ward's minimum variance method, with Euclidean distance measure. Data were normalized by subtracting the mean (after logarithmic transformation in the case of apparent affinity and time constants), and dividing by the standard deviation.

[1] = pH 6.0, concentration (lidocaine 300 μM, memantine 30 μM)
[2] = pH 6.0, higher concentration: lidocaine 1000 μM, memantine 100 μM
[3] = pH 6.0, single concentration (lidocaine 300 μM, memantine 30 μM), geometric mean of 5, read-out: apparent affinity
[4] = pH 7.3, concentration (lidocaine 300 μM, memantine 30 μM)
[5] = pH 7.3, higher concentration: lidocaine 1000 μM, memantine 100 μM
[6] = pH 7.3, single concentration (lidocaine 300 μM, memantine 30 μM), geometric mean of 5, read-out: apparent affinity
[7] = pH 8.6, concentration (lidocaine 300 μM, memantine 30 μM)
[8] = pH 8.6, higher concentration: lidocaine 1000 μM, memantine 100 μM
[9] = pH 8.6, single concentration (lidocaine 300 μM, memantine 30 μM), geometric mean of 5, read-out: apparent affinity
[10] = pH=6.0, cc 100 mM, read-out: Apparent Affinity
[11] = pH=7.3, cc 100 mM, read-out: Apparent Affinity
[12] = pH=8.6, cc 100 mM, read-out: Apparent Affinity

T1 sequence (P04775 whole entry): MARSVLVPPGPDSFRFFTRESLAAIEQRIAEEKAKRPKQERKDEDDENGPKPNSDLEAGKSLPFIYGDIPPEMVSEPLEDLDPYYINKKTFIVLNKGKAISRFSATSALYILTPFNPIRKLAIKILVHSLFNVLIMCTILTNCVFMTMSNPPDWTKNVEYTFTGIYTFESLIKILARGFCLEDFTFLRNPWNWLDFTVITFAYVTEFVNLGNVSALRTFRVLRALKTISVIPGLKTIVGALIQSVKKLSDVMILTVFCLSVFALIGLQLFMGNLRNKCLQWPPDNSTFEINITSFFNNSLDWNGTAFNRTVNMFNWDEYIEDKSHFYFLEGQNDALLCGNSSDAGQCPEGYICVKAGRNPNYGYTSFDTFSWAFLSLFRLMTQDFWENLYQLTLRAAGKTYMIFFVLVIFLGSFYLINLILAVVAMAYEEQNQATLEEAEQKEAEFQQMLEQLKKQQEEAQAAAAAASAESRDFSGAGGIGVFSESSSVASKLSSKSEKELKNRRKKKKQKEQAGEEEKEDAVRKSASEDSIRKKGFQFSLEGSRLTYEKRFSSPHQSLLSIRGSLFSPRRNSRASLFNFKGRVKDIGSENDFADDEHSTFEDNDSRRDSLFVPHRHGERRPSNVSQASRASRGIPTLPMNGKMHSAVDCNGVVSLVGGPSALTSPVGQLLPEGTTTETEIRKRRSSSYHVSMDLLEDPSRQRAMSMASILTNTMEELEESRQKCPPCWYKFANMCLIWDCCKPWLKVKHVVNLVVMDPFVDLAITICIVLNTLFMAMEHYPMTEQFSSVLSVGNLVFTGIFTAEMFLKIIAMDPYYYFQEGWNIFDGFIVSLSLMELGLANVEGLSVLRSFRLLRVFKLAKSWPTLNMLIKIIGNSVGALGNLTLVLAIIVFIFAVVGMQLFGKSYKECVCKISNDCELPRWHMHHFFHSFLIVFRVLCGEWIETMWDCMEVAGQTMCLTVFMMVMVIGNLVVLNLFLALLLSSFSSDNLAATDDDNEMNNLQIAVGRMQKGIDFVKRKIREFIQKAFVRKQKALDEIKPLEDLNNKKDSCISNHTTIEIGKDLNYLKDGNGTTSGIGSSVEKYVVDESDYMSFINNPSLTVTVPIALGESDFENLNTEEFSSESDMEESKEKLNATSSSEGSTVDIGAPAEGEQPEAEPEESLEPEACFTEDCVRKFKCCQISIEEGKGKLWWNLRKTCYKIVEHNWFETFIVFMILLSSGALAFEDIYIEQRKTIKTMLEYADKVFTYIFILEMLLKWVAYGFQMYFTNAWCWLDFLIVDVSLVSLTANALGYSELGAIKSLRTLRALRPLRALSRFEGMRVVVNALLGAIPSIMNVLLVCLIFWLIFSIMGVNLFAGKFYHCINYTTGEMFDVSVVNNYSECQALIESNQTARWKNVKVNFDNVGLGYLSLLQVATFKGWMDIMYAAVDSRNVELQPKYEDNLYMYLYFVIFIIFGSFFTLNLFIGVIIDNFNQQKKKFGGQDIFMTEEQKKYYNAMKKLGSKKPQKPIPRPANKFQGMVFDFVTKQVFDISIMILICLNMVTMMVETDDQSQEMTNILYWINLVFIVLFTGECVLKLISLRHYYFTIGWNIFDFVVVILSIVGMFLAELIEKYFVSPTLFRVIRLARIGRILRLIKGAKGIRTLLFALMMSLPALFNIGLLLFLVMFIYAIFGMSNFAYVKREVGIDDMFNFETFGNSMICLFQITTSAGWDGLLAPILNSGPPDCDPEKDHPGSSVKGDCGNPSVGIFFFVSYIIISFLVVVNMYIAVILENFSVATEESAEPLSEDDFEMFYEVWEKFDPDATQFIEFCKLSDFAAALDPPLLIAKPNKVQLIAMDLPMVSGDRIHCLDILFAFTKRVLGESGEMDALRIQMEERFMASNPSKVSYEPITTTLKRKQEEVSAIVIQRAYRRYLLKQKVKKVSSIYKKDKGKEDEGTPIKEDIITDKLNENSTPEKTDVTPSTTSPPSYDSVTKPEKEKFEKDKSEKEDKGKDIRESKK

SMILES: CC12CC3CC(C)(C1)CC(N)(C3)C2 [memantine]
class of pH-dependence pattern (cluster analysis): Class F | Ratio Reversibility (pH 6.0/7.3, cc 30 mM): 0.946 | Ratio Tau Offset (pH 6.0/7.3, cc 30 mM): 1.093 | Ratio Tau Onset (pH 6.0/7.3, cc 30 mM): 0.877 | log Ratio App Aff (pH 6.0/7.3, cc 30 mM): 0.255 | Ratio Reversibility (pH 6.0/7.3, cc 100 mM): 0.974 | Ratio Tau Offset (pH 6.0/7.3, cc 100 mM): 0.656 | Ratio Tau Onset (pH 6.0/7.3, cc 100 mM): 1.032 | log Ratio App Aff (pH 6.0/7.3, cc 100 mM): 0.109 | Ratio Reversibility (pH 6.0/8.6, cc 30 mM): 1.464 | Ratio Tau Offset (pH 6.0/8.6, cc 30 mM): 1.000 | Ratio Tau Onset (pH 6.0/8.6, cc 30 mM): 0.688 | log Ratio App Aff (pH 6.0/8.6, cc 30 mM): 0.915 | Ratio Reversibility (pH 6.0/8.6, cc 100 mM): 1.593 | Ratio Tau Offset (pH 6.0/8.6, cc 100 mM): 0.550 | Ratio Tau Onset (pH 6.0/8.6, cc 100 mM): 0.842 | log Ratio App Aff (pH 6.0/8.6, cc 100 mM): 0.840 | τoffset [1]: 23.60 s | τonset [1]: 12.80 s | τoffset [2]: 12.20 s | τonset [2]: 12.80 s | Kd (pH 6.0, higher concentration: lidocaine 1000 μM, memantine 100 μM, read-out: apparent affinity): 303 µM | Kd [3]: 394 µM | Ratio Reversibility (pH 7.3/8.6, cc 30 mM): 1.547 | Ratio Tau Offset (pH 7.3/8.6, cc 30 mM): 0.915 | Ratio Tau Onset (pH 7.3/8.6, cc 30 mM): 0.785 | log Ratio App Aff (pH 7.3/8.6, cc 30 mM): 0.661 | Ratio Reversibility (pH 7.3/8.6, cc 100 mM): 1.636 | Ratio Tau Offset (pH 7.3/8.6, cc 100 mM): 0.838 | Ratio Tau Onset (pH 7.3/8.6, cc 100 mM): 0.816 | log Ratio App Aff (pH 7.3/8.6, cc 100 mM): 0.731 | τoffset [4]: 21.60 s | τonset [4]: 14.60 s | τoffset [5]: 18.60 s | τonset [5]: 12.40 s | Kd (pH 7.3, higher concentration: lidocaine 1000 μM, memantine 100 μM, read-out: apparent affinity): 236 µM | Kd [6]: 219 µM | τoffset [7]: 23.60 s | τonset [7]: 18.60 s | τoffset [8]: 22.20 s | τonset [8]: 15.20 s | Kd (pH 8.6, higher concentration: lidocaine 1000 μM, memantine 100 μM, read-out: apparent affinity): 43.8 µM | Kd [9]: 47.9 µM | KD app, effect of acidic medium (pH = 6.0 vs neutral, increased KD app = decreased apparent affinity): MEM,MEX,TOL↑ | Reversibility (pH=6.0, cc 30 mM): 0.82 | Kd (pH=6.0, cc 30 mM, read-out: Apparent Affinity): 394 µM | Reversibility (pH=6.0, cc 100 mM): 0.89 | Kd [10]: 303 µM | Reversibility (pH=7.3, cc 30 mM): 0.86 | Kd (pH=7.3, cc 30 mM, read-out: Apparent Affinity): 219 µM | Reversibility (pH=7.3, cc 100 mM): 0.92 | Kd [11]: 236 µM | Reversibility (pH=8.6, cc 30 mM): 0.56 | Kd (pH=8.6, cc 30 mM, read-out: Apparent Affinity): 47.9 µM | Reversibility (pH=8.6, cc 100 mM): 0.56 | Kd [12]: 43.8 µM

class of pH-dependence pattern (cluster analysis): Class G | τoffset [1]: 8.50 s | τonset [1]: 7.60 s | Kd [3]: 138 µM | τoffset [4]: 11.20 s | τonset [4]: 8.60 s | Kd [6]: 88.7 µM | τoffset [7]: 12.00 s | τonset [7]: 11.40 s | Kd [9]: 44.2 µM
SMILES: Nc1c(Br)cc(Br)cc1CN[C@H]1CC[C@H](O)CC1 [ambroxol]
Ratio Reversibility (pH 6.0/7.3, cc 100 mM): 0.839 | Ratio Tau Offset (pH 6.0/7.3, cc 100 mM): 0.759 | Ratio Tau Onset (pH 6.0/7.3, cc 100 mM): 0.884 | log Ratio App Aff (pH 6.0/7.3, cc 100 mM): 0.190 | Ratio Reversibility (pH 6.0/8.6, cc 100 mM): 1.137 | Ratio Tau Offset (pH 6.0/8.6, cc 100 mM): 0.708 | Ratio Tau Onset (pH 6.0/8.6, cc 100 mM): 0.667 | log Ratio App Aff (pH 6.0/8.6, cc 100 mM): 0.494 | Ratio Reversibility (pH 7.3/8.6, cc 100 mM): 1.355 | Ratio Tau Offset (pH 7.3/8.6, cc 100 mM): 0.933 | Ratio Tau Onset (pH 7.3/8.6, cc 100 mM): 0.754 | log Ratio App Aff (pH 7.3/8.6, cc 100 mM): 0.303 | Reversibility (pH=6.0, cc 100 mM): 0.65 | Kd [10]: 138 µM | Reversibility (pH=7.3, cc 100 mM): 0.78 | Kd [11]: 88.7 µM | Reversibility (pH=8.6, cc 100 mM): 0.58 | Kd [12]: 44.2 µM
